From publication PMC12056667 (Chemical Science, 2025)

Columns and labels:
[1] = target: Tet(X4) (Escherichia coli, UniProt A0A3T0V9Y5); assay: FP competitive displacement of probe 6; assay type: binding; details: IC50app, Tet(X4) (Polarization), 25 nM 6, 40 nM Tet(X4), 5 mM MgCl2, 1 μM FAD, 100 mM Tris pH 7.0, 0.01% Triton X-100
Outline: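 FP displacement of probe 6 (added as 50 nM solution) from Tet(X4) (2× mix: 80 nM enzyme, 2 μM FAD, 10 mM MgCl2), 30 min at ambient temperature. Dose-response used 3-fold, 10-point DMSO series (top 5 or 0.5 mM stock). IC50^app came from a Hill fit of control-normalised response. Library screening used 10 μM compound, 0.1% DMSO, […].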

[2] = test system: Acinetobacter spp. NT3-1 – tet(X3); assay: microbe, parasite or virus in culture; assay type: cell-based; details: for MIC: Acinetobacter, read-out: Tet(X) Inhibitor MIC, alone; for Combination (Antibiotic/Inhibitor) MICs: inhibitor / Combination (Antibiotic/Inhibitor) MICs: antibiotic: lowest FICI
Procedure: (§1) MIC tests and checkerboard assays were performed in U-bottom, 96-well microtiter plates using a modified broth microdilution protocol following CLSI guidelines. Cation-adjusted Mueller-Hinton Broth (CAMHB) was prepared fresh on the day of testing.[74] In brief, assays were set up in a total volume of 100 μL per well and titrations comprised seven 2-fold dilutions of inhibitors and ten 2-fold dilutions of tigecycline in CAMHB. Bacterial colonies were selected from an overnight culture on MHA plates (supplemented with 0.2%w/vL-arabinose for E. coli TOP10 containing pBAD-TOPO-Tet(X4)) and were suspended in 0.9% saline solution to achieve a 0.5 McFarland standard. A 100 μL aliquot of this suspension was then diluted into 9.9 mL of CAMHB to yield approximately 1.5 × 10^6 cfu mL^−1. 50 μL of the suspension was then added to each well of a microtiter plates. Plates were incubated at 37 °C for 18 h. At least 2 replicates were conducted for each combination. E. coli TOP10 + pBAD-TOPO-Tet(X4) cells were grown in the absence and presence of 0.2%w/vL-arabinose. Analysis of the MIC and checkerboard results were carried out by visual inspection of growth, with and without resazurin dye, an oxidation–reduction indicator.[75] As a measure of synergy, fractional inhibitory concentration index (FICI) was calculated as FICA + FICB, where FICA and FICB are the MICcombination/MICalone for each agent, respectively.[76] Results were interpreted as follows: synergistic (<0.5), indifferent (1.0–4.0) or antagonistic (>4.0).[64] In cases where the MIC exceeded or was below the measured range, the borderline value was taken to calculate the FIC index.

[3] = test system: Salmonella enterica T-2a – tet(X4); assay: microbe, parasite or virus in culture; assay type: cell-based; details: for MIC: Salmonella enterica, read-out: Tet(X) Inhibitor MIC; for Combination (Antibiotic/Inhibitor) MICs: inhibitor / Combination (Antibiotic/Inhibitor) MICs: antibiotic: lowest FICI
Procedure: as §1

[4] = test system: Acinetobacter baumannii NT5-1 – tet(X5); assay: microbe, parasite or virus in culture; assay type: cell-based; details: for MIC: Acinetobacter baumannii, read-out: Tet(X) Inhibitor MIC; for Combination (Antibiotic/Inhibitor) MICs: inhibitor / Combination (Antibiotic/Inhibitor) MICs: antibiotic: lowest FICI
Procedure: as §1, with “In brief, assays were set up in a total volume of 100 μL per well and titrations comprised seven 2-fold dilutions of inhibitors and ten 2-fold dilutions of tigecycline in CAMHB.” left out

[5] = test system: Escherichia coli T-24a – tet(X4); assay: microbe, parasite or virus in culture; assay type: cell-based; details: for MIC: Escherichia coli, read-out: Tet(X) Inhibitor MIC, alone; for Combination (Antibiotic/Inhibitor) MICs: inhibitor / Combination (Antibiotic/Inhibitor) MICs: antibiotic: lowest FICI
Procedure: as §1, with “In brief, assays were set up in a total volume of 100 μL per well and titrations comprised seven 2-fold dilutions of inhibitors and ten 2-fold dilutions of tigecycline in CAMHB.” left out

[6] = test system: Proteus penneri NT6-2 – tet(X6); assay: microbe, parasite or virus in culture; assay type: cell-based; details: for MIC: Proteus penneri, read-out: Tet(X) Inhibitor MIC; for Combination (Antibiotic/Inhibitor) MICs: inhibitor / Combination (Antibiotic/Inhibitor) MICs: antibiotic: lowest FICI
Procedure: as §1, with “In brief, assays were set up in a total volume of 100 μL per well and titrations comprised seven 2-fold dilutions of inhibitors and ten 2-fold dilutions of tigecycline in CAMHB.” left out

[7] = inhibitor in combination with tigecycline
[8] = tigecycline in combination with the inhibitor

O=C(c1ccc(OCCN2CCCCC2)cc1)c1c(-c2ccc(O)cc2)sc2cc(O)ccc12 [Raloxifene] was tested, and the IC50 [1] was 19.8 ± 5.4 µM, the MIC ([2]; Acinetobacter spp. NT3-1) was 4 µg/mL and the “Combination (Antibiotic/Inhibitor) MICs: inhibitor” value [2, 7] was 2 µg/mL. For the same compound, the “Combination (Antibiotic/Inhibitor) MICs: antibiotic” value [2, 8] was 2 µg/mL, the FICI ([2]; with tigecycline) was 1 and the Outcome ([2]; with tigecycline) was “indifferent (indifferent (0.5-4.0))”. For the same compound, the MIC [3] was over 128 µg/mL, the “Combination (Antibiotic/Inhibitor) MICs: inhibitor” value [3, 7] was 128 µg/mL and the “Combination (Antibiotic/Inhibitor) MICs: antibiotic” value [3, 8] was 16 µg/mL. For the same compound, the FICI ([3]; with tigecycline) was 1.5, the Outcome ([3]; with tigecycline) was “indifferent (indifferent (0.5-4.0))” and the MIC [4] was over 128 µg/mL. The “Combination (Antibiotic/Inhibitor) MICs: inhibitor” value [4, 7] was 128 µg/mL, the “Combination (Antibiotic/Inhibitor) MICs: antibiotic” value [4, 8] was 2 µg/mL and the FICI ([4]; with tigecycline) was 1.3. The Outcome ([4]; with tigecycline) was “indifferent (indifferent (0.5-4.0))”, the MIC ([5]; E. coli T-24a) was 256 µg/mL and the “Combination (Antibiotic/Inhibitor) MICs: inhibitor” value [5, 7] was 128 µg/mL. The “Combination (Antibiotic/Inhibitor) MICs: antibiotic” value [5, 8] was 8 µg/mL, the FICI ([5]; with tigecycline) was 1 and the Outcome ([5]; with tigecycline) was “indifferent (indifferent (0.5-4.0))”. For the same compound, the MIC [6] was over 128 µg/mL, the “Combination (Antibiotic/Inhibitor) MICs: inhibitor” value [6, 7] was over 128 µg/mL and the “Combination (Antibiotic/Inhibitor) MICs: antibiotic” value [6, 8] was 8 µg/mL. The FICI ([6]; with tigecycline) was 2 and the Outcome ([6]; with tigecycline) was “indifferent (indifferent (0.5-4.0))”.
With [H]/N=C(/NCCCCC)N/N=C/c1c[nH]c2ccc(OC)cc12 [Tegaserod] the IC50 [1] was 43.2 ± 2.2 µM, the MIC ([2]; Acinetobacter spp. NT3-1) was 4 µg/mL and the “Tet(X) inhibitor MIC” value ([2]; alone, Acinetobacter spp. NT3-1) was 8 µg/mL. The “Combination (Antibiotic/Inhibitor) MICs: antibiotic” value ([2]; doxycycline with tegaserod) was 4 µg/mL, the “Combination (Antibiotic/Inhibitor) MICs: inhibitor” value [2, 7] was 2 µg/mL and the “Combination (Antibiotic/Inhibitor) MICs: inhibitor” value ([2]; tegaserod with doxycycline) was 4 µg/mL. The “Combination (Antibiotic/Inhibitor) MICs: inhibitor” value ([2]; tegaserod with tetracycline) was 4 µg/mL, the “Combination (Antibiotic/Inhibitor) MICs: antibiotic” value ([2]; tetracycline with tegaserod) was 16 µg/mL and the “Combination (Antibiotic/Inhibitor) MICs: antibiotic” value [2, 8] was 0.5 µg/mL. For the same compound, the FICI ([2]; with doxycycline) was 1.0, the Outcome ([2]; with doxycycline) was “indifferent (indifferent (0.5-4.0))” and the FICI ([2]; with tetracycline) was 0.8. The Outcome ([2]; with tetracycline) was “indifferent (indifferent (0.5-4.0))”, the FICI ([2]; with tigecycline) was 0.6 and the Outcome ([2]; with tigecycline) was “indifferent (indifferent (0.5-4.0))”. For the same compound, the MIC [3] was 32 µg/mL, the “Combination (Antibiotic/Inhibitor) MICs: antibiotic” value ([3]; doxycycline with tegaserod) was 8 µg/mL and the “Combination (Antibiotic/Inhibitor) MICs: inhibitor” value [3, 7] was 8 µg/mL. For the same compound, the “Combination (Antibiotic/Inhibitor) MICs: inhibitor” value ([3]; tegaserod with doxycycline) was 16 µg/mL, the “Combination (Antibiotic/Inhibitor) MICs: inhibitor” value ([3]; tegaserod with tetracycline) was 16 µg/mL and the “Combination (Antibiotic/Inhibitor) MICs: antibiotic” value ([3]; tetracycline with tegaserod) was 32 µg/mL. The “Combination (Antibiotic/Inhibitor) MICs: antibiotic” value [3, 8] was 8 µg/mL, the FICI ([3]; with doxycycline) was 0.8 and the Outcome ([3]; with doxycycline) was “indifferent (indifferent (0.5-4.0))”. The FICI ([3]; with tetracycline) was 0.8, the Outcome ([3]; with tetracycline) was “indifferent (indifferent (0.5-4.0))” and the FICI ([3]; with tigecycline) was 0.5. The Outcome ([3]; with tigecycline) was “indifferent (indifferent (0.5-4.0))”, the MIC [4] was 32 µg/mL and the “Combination (Antibiotic/Inhibitor) MICs: antibiotic” value ([4]; doxycycline with tegaserod) was 16 µg/mL. For the same compound, the “Combination (Antibiotic/Inhibitor) MICs: inhibitor” value [4, 7] was 16 µg/mL, the “Combination (Antibiotic/Inhibitor) MICs: inhibitor” value ([4]; tegaserod with doxycycline) was 4 µg/mL and the “Combination (Antibiotic/Inhibitor) MICs: inhibitor” value ([4]; tegaserod with tetracycline) was 8 µg/mL. The “Combination (Antibiotic/Inhibitor) MICs: antibiotic” value ([4]; tetracycline with tegaserod) was 128 µg/mL, the “Combination (Antibiotic/Inhibitor) MICs: antibiotic” value [4, 8] was 1 µg/mL and the FICI ([4]; with doxycycline) was 0.6. The Outcome ([4]; with doxycycline) was “indifferent (indifferent (0.5-4.0))”, the FICI ([4]; with tetracycline) was 1.3 and the Outcome ([4]; with tetracycline) was “indifferent (indifferent (0.5-4.0))”. For the same compound, the FICI ([4]; with tigecycline) was 0.6, the Outcome ([4]; with tigecycline) was “indifferent (indifferent (0.5-4.0))” and the MIC ([5]; E. coli T-24a) was 16 µg/mL. The “Tet(X) inhibitor MIC” value ([5]; alone, E. coli T-24a) was 32 µg/mL, the “Combination (Antibiotic/Inhibitor) MICs: antibiotic” value ([5]; doxycycline with tegaserod) was 4 µg/mL and the “Combination (Antibiotic/Inhibitor) MICs: inhibitor” value [5, 7] was 8 µg/mL. For the same compound, the “Combination (Antibiotic/Inhibitor) MICs: inhibitor” value ([5]; tegaserod with doxycycline) was 16 µg/mL, the “Combination (Antibiotic/Inhibitor) MICs: inhibitor” value ([5]; tegaserod with tetracycline) was 16 µg/mL and the “Combination (Antibiotic/Inhibitor) MICs: antibiotic” value ([5]; tetracycline with tegaserod) was 32 µg/mL. The “Combination (Antibiotic/Inhibitor) MICs: antibiotic” value [5, 8] was 4 µg/mL, the FICI ([5]; with doxycycline) was 0.6 and the Outcome ([5]; with doxycycline) was “indifferent (indifferent (0.5-4.0))”. For the same compound, the FICI ([5]; with tetracycline) was 0.8, the Outcome ([5]; with tetracycline) was “indifferent (indifferent (0.5-4.0))” and the FICI ([5]; with tigecycline) was 0.8. For the same compound, the Outcome ([5]; with tigecycline) was “indifferent (indifferent (0.5-4.0))”, the MIC [6] was 64 µg/mL and the “Combination (Antibiotic/Inhibitor) MICs: antibiotic” value ([6]; doxycycline with tegaserod) was 8 µg/mL. For the same compound, the “Combination (Antibiotic/Inhibitor) MICs: inhibitor” value [6, 7] was 16 µg/mL, the “Combination (Antibiotic/Inhibitor) MICs: inhibitor” value ([6]; tegaserod with doxycycline) was 32 µg/mL and the “Combination (Antibiotic/Inhibitor) MICs: inhibitor” value ([6]; tegaserod with tetracycline) was 32 µg/mL. The “Combination (Antibiotic/Inhibitor) MICs: antibiotic” value ([6]; tetracycline with tegaserod) was 16 µg/mL, the “Combination (Antibiotic/Inhibitor) MICs: antibiotic” value [6, 8] was 4 µg/mL and the FICI ([6]; with doxycycline) was 1.0. For the same compound, the Outcome ([6]; with doxycycline) was “indifferent (indifferent (0.5-4.0))”, the FICI ([6]; with tetracycline) was 1.0 and the Outcome ([6]; with tetracycline) was “indifferent (indifferent (0.5-4.0))”. The FICI ([6]; with tigecycline) was 0.8 and the Outcome ([6]; with tigecycline) was “indifferent (indifferent (0.5-4.0))”.
